Assay results published in PMC13112672, “The Drp1-CoQ10-Coa6-ETC axis represents a therapeutic potential for working memory impairment caused by neuronal mitochondrial dysfunction” (Translational Neurodegeneration, 2026).

Molecular target: T1, Coa6 (cytochrome c oxidase assembly factor 6) (Mus musculus, UniProt Q8BGD8)
T1 construct: E. coli BL21(DE3); Ni-bead purification (vector His tag, removal not mentioned)
T1 sequence (Q8BGD8 1-79): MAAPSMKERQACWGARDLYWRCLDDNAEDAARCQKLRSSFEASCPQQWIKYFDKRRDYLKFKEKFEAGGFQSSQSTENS
Experiment: surface plasmon resonance (CM5 chip, immobilised Coa6)
Format: binding
Conditions: analyte 0.39–25 μM CoQ10; protein amine-coupled, ~12,600 RU

Kd: 24 µM
Structure (SMILES): COC1=C(OC)C(=O)C(C/C=C(\C)CC/C=C(\C)CC/C=C(\C)CC/C=C(\C)CC/C=C(\C)CC/C=C(\C)CC/C=C(\C)CC/C=C(\C)CC/C=C(\C)CCC=C(C)C)=C(C)C1=O [CoQ10]
